Laboratory results from patent US20250064773A1, “TARGETING ERO1 ALPHA WITH AURONE DERIVATIVES” (West Virginia University Board of Governors on behalf of …, priority 2021, published 2025).

Target: T1, ERO1β (Homo sapiens, UniProt Q86YB8)
T1 construct: endogenous in cells; host or cells: PC-9
T1 sequence (Q86YB8 34-467): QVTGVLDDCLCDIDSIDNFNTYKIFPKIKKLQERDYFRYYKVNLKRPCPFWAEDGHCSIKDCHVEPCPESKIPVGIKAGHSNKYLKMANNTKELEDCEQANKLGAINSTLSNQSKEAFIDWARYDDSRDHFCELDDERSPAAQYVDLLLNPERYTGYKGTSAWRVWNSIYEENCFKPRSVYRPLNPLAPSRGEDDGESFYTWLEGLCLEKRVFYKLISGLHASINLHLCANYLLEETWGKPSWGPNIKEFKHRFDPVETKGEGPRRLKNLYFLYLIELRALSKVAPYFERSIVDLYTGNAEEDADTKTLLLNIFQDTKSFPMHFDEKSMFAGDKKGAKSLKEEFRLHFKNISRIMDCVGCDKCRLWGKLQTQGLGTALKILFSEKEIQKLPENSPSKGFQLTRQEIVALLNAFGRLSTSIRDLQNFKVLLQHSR
Assay: Cellular thermal shift assay (CETSA) in PC-9 cells, ERO1β
Type: cell-based
Conditions: 100 μM
Excerpt: To date activity of T151742 towards other flavoenzymes has not been identified at this time. We utilized the Cellular Thermal Shift Assay (CETSA) to determine target engagement of T151742 in vitro using the non-small cell lung cancer (NSCLC) cell line PC-9. The EGFR driven PC-9 cell line was chosen as new treatment strategies are needed in EGFR driven NSCLC as most patients relapse and become resistant to current targeted therapies with development of further mutations such as T790M, C797S as well as emergence of EGFR independent tumors^42, 43. […] First, we determined the aggregation temperature (Tagg) of ERO1α, ERO1β, and LSD-1, which are all FAD dependent enzymes and potential in vitro targets of T15742. […]
Upon addition of T151742, Tagg was quantified for ERO1α, ERO1β, and LSD-1. Quantification of the average of n=3 independent experiments based on western blot analysis for ERO1α, ERO1β, and LSD-1. […] Cellular viability was determined by MTT assay. n=3 independent experiments performed in quadruplicates. ****p<0.0001; by two-way ANOVA.
Cell Lines: PC-9 cell line used was obtained from Sigma Aldrich and grown in RPMI 1640 medium with 10% fetal bovine serum and 1% penicillin/streptomycin. […] Plate was then read on the BioTek Cytation 5 at 530/590 nm. […]

Structure (SMILES): CN(C)c1ccc(/C=C2\Oc3cc(O)ccc3C2=O)cc1 [Compound T151742]
- change of Tagg for ERO1β: did not change
